Results from patent US10308643B2, “Heterocyclic compound” (Takeda Pharmaceutical Company Limited, priority 2015, dated 2019).

Key:
Assay type in all cases: biochemical
HDAC6 enzyme = target: T1, HDAC6 enzyme (Homo sapiens, UniProt Q9UBN7); experiment: HDAC1/6 Enzyme Inhibitory Assay (HDAC-Glo I/II Assay kit), HDAC6; details: 1 μM test compound; wells without enzyme = 100% inhibition; read-out: HDAC6 inhibitory rate (%) (1 μM)
T1 construct: transducing full length HDAC1 and HDAC6 genes into Sf-9 insect cells; GST; purchased SignalChem; host or cells: Sf-9 insect cells
T1 sequence (Q9UBN7 1-1215): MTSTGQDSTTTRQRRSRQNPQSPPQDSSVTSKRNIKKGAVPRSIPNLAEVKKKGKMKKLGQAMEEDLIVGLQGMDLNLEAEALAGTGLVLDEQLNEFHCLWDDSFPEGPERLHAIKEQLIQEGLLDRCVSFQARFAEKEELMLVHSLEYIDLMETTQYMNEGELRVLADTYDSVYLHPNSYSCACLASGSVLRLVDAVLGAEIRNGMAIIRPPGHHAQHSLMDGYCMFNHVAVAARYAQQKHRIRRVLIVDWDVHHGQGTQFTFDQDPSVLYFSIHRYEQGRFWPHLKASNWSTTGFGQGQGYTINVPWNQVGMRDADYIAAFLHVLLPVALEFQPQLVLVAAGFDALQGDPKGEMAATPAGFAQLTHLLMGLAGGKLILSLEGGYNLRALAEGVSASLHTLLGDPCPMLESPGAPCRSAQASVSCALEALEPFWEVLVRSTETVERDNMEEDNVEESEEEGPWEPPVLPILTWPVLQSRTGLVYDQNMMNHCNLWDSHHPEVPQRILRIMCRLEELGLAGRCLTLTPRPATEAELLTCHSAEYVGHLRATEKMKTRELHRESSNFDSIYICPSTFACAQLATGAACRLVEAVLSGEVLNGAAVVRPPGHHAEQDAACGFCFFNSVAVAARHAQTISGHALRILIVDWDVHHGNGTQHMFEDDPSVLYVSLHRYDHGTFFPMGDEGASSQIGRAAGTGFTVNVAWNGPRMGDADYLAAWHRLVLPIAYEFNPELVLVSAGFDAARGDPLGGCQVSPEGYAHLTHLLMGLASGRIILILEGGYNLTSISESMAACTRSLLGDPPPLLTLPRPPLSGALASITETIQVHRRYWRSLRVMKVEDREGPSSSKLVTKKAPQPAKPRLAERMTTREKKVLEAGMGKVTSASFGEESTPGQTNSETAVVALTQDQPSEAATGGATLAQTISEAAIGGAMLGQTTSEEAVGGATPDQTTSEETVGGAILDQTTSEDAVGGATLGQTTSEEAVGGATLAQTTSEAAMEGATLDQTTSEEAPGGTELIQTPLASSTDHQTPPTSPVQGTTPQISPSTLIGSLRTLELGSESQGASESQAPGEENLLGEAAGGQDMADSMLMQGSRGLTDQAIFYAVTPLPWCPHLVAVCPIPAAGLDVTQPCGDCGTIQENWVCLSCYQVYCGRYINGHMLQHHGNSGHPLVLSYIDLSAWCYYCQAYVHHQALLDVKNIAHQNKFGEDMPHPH
Procedure, shortened: (§1)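 Inhibitory activity derives from HDAC-Glo luminescence, expressed relative to wells lacking enzyme (100% inhibition). Compounds meet full-length GST-purified HDAC1 or HDAC6 for 60 min at room temperature before a 20 min substrate-developer reaction.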

HDAC9 enzyme = target: T2, HDAC9 enzyme (Homo sapiens, UniProt Q9UKV0); experiment: HDAC9 Enzyme Inhibitory Assay (HDAC-Glo class IIa); details: 1 μM test compound; wells without enzyme = 100% inhibition; read-out: HDAC9 inhibitory rate (%) (1 μM)
T2 construct: transducing full length HDAC9 gene into Sf-9 insect cells; made in house; host or cells: Sf-9 insect cells
Procedure, shortened: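 Luminescent HDAC-Glo class IIa readout after a 20 min room-temperature reaction; relative inhibition referenced to enzyme-free wells as 100%. Test compound first preincubated 60 min with Sf-9-expressed, Ni-NTA-purified full-length HDAC9 in pH 7.5 Tris buffer containing 135 mM NaCl, 0.6 mM glutathione and 0.01% Tween-20.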

HDAC1 enzyme = target: T3, HDAC1 enzyme (Homo sapiens, UniProt Q13547); experiment: HDAC1/6 Enzyme Inhibitory Assay (HDAC-Glo I/II Assay kit), HDAC1; details: 1 μM test compound; wells without enzyme = 100% inhibition; read-out: HDAC1 inhibitory rate (%) (1 μM)
T3 construct: transducing full length HDAC1 and HDAC6 genes into Sf-9 insect cells; GST; purchased SignalChem; host or cells: Sf-9 insect cells
Procedure, shortened: as §1

T2 sequence (Q9UKV0 whole entry, species assumed): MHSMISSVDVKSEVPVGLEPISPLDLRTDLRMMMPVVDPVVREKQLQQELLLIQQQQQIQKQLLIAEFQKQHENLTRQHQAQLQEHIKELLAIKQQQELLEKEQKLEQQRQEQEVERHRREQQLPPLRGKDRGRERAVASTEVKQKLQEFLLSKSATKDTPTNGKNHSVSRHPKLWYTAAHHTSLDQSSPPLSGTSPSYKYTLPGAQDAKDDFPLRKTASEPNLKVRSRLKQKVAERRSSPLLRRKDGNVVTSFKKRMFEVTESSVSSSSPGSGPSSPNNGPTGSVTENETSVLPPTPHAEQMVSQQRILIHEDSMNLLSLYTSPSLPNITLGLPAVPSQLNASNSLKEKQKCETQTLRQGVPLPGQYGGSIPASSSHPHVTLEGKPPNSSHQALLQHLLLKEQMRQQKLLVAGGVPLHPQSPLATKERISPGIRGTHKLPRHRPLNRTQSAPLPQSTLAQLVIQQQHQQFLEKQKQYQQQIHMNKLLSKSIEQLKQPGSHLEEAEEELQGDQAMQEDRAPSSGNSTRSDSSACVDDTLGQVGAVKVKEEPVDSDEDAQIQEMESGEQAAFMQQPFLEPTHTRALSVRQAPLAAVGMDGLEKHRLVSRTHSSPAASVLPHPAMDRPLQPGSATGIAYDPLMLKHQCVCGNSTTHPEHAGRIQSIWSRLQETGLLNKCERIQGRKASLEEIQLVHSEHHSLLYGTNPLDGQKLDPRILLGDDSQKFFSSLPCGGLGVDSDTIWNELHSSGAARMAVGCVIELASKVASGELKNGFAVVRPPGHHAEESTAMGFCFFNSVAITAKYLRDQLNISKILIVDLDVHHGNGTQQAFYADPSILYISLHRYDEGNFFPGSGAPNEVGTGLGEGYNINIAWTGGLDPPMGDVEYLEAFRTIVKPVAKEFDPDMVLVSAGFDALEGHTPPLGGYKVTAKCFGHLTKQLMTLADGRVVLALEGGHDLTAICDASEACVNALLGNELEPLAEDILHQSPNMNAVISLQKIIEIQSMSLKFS
T3 sequence (Q13547 whole entry): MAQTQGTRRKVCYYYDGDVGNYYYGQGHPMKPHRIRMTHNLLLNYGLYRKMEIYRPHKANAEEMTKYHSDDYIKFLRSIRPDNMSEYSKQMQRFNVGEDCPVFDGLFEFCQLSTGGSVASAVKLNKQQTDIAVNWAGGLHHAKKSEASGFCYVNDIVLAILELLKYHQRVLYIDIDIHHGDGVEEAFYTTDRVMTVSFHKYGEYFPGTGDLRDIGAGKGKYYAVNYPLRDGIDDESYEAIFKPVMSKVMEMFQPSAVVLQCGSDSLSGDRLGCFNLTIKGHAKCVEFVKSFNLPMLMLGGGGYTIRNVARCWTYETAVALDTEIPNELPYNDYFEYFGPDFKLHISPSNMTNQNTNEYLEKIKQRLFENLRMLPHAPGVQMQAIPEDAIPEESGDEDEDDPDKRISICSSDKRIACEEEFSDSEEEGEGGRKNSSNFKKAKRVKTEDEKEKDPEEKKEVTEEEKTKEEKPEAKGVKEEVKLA

Structure (SMILES): O=C1C[C@](Cc2ccccc2)(N2Cc3ccc(-c4noc(C(F)(F)F)n4)cc3C2=O)CN1 [Example 61, 2-((3S)-3-benzyl-5-oxopyrrolidin-3-yl)-6-(5-(trifluoromethyl)-1,2,4-oxadiazol-3-yl)isoindolin-1-one]
- inhibition at 1 µM (HDAC6 enzyme): 99%
- inhibition at 1 µM (HDAC9 enzyme): 93%
- inhibition at 1 µM (HDAC1 enzyme): 41%

Structure (SMILES): C[C@H](c1ccccc1)N1CC[C@@H]2CC[C@@H](N3Cc4ccc(-c5noc(C(F)(F)F)n5)cc4C3=O)[C@@H]21 [Example 62, 2-((3aS,6R,6aR)-1-((1R)-1-phenylethyl)octahydrocyclopenta[b]pyrrol-6-yl)-6-(5-(trifluoromethyl)-1,2,4-oxadiazol-3-yl)isoindolin-1-one]
- inhibition at 1 µM (HDAC6 enzyme): 98%
- inhibition at 1 µM (HDAC9 enzyme): 89%
- inhibition at 1 µM (HDAC1 enzyme): 46%

Structure (SMILES): C[C@H](c1ccccc1)N1CC[C@H]2CC[C@H](N3Cc4ccc(-c5noc(C(F)(F)F)n5)cc4C3=O)[C@H]21 [Example 63, 2-((3aR,6S,6aS)-1-((1R)-1-phenylethyl)octahydrocyclopenta[b]pyrrol-6-yl)-6-(5-(trifluoromethyl)-1,2,4-oxadiazol-3-yl)isoindolin-1-one]
- inhibition at 1 µM (HDAC6 enzyme): 90%
- inhibition at 1 µM (HDAC9 enzyme): 82%
- inhibition at 1 µM (HDAC1 enzyme): 15%

Structure (SMILES): O=C1CCC2(CCC(N3Cc4ccc(-c5noc(C(F)(F)F)n5)cc4C3=O)CC2)N1 (stereo not drawn) [Example 64, (5r,8r)-8-(1-oxo-6-(5-(trifluoromethyl)-1,2,4-oxadiazol-3-yl)-1,3-dihydro-2H-isoindol-2-yl)-1-azaspiro[4.5]decan-2-one]
- inhibition at 1 µM (HDAC6 enzyme): 93%
- inhibition at 1 µM (HDAC9 enzyme): 70%
- inhibition at 1 µM (HDAC1 enzyme): 6%

Structure (SMILES): O=C(Cn1c(=O)oc2ccccc21)N1CCC(N2Cc3ccc(-c4noc(C(F)(F)F)n4)cc3C2=O)CC1 [Example 65, 3-(2-oxo-2-(4-(1-oxo-6-(5-(trifluoromethyl)-1,2,4-oxadiazol-3-yl)-1,3-dihydro-2H-isoindol-2-yl)piperidin-1-yl)ethyl)-1,3-benzoxazol-2(3H)-one]
- inhibition at 1 µM (HDAC6 enzyme): 89%
- inhibition at 1 µM (HDAC9 enzyme): 73%
- inhibition at 1 µM (HDAC1 enzyme): 7%

Structure (SMILES): O=C(c1ccccc1)N1CCC(N2Cc3ncc(-c4noc(C(F)(F)F)n4)cc3C2=O)CC1 [Example 67, 6-(1-benzoylpiperidin-4-yl)-3-(5-(trifluoromethyl)-1,2,4-oxadiazol-3-yl)-6,7-dihydro-5H-pyrrolo[3,4-b]pyridin-5-one]
- inhibition at 1 µM (HDAC6 enzyme): 99%
- inhibition at 1 µM (HDAC9 enzyme): 81%
- inhibition at 1 µM (HDAC1 enzyme): 13%

Structure (SMILES): O=C(Cc1ccc(F)cc1)N1CCC(N2Cc3ncc(-c4noc(C(F)(F)F)n4)cc3C2=O)CC1 [Example 68, 6-(1-((4-fluorophenyl)acetyl)piperidin-4-yl)-3-(5-(trifluoromethyl)-1,2,4-oxadiazol-3-yl)-6,7-dihydro-5H-pyrrolo[3,4-b]pyridin-5-one]
- inhibition at 1 µM (HDAC6 enzyme): 90%
- inhibition at 1 µM (HDAC9 enzyme): 90%
- inhibition at 1 µM (HDAC1 enzyme): 35%

Structure (SMILES): CC(=O)N1CCC(N2Cc3ncc(-c4noc(C(F)(F)F)n4)cc3C2=O)C1 (stereo not drawn) [Example 69, 6-(1-acetylpyrrolidin-3-yl)-3-(5-(trifluoromethyl)-1,2,4-oxadiazol-3-yl)-6,7-dihydro-5H-pyrrolo[3,4-b]pyridin-5-one]
- inhibition at 1 µM (HDAC6 enzyme): 91%
- inhibition at 1 µM (HDAC9 enzyme): 81%
- inhibition at 1 µM (HDAC1 enzyme): 15%

Structure (SMILES): O=C(c1ccccc1)N1CCC(N2Cc3ncc(-c4noc(C(F)(F)F)n4)cc3C2=O)C1 (stereo not drawn) [Example 70, 6-(1-benzoylpyrrolidin-3-yl)-3-(5-(trifluoromethyl)-1,2,4-oxadiazol-3-yl)-6,7-dihydro-5H-pyrrolo[3,4-b]pyridin-5-one]
- inhibition at 1 µM (HDAC6 enzyme): 96%
- inhibition at 1 µM (HDAC9 enzyme): 95%
- inhibition at 1 µM (HDAC1 enzyme): 52%

Structure (SMILES): O=C(Cc1ccc(F)cc1)N1CCC(N2Cc3ncc(-c4noc(C(F)(F)F)n4)cc3C2=O)C1 (stereo not drawn) [Example 74, 6-(1-((4-fluorophenyl)acetyl)pyrrolidin-3-yl)-3-(5-(trifluoromethyl)-1,2,4-oxadiazol-3-yl)-6,7-dihydro-5H-pyrrolo[3,4-b]pyridin-5-one]
- inhibition at 1 µM (HDAC6 enzyme): 86%
- inhibition at 1 µM (HDAC9 enzyme): 90%
- inhibition at 1 µM (HDAC1 enzyme): 33%

Structure (SMILES): CC(=O)N1CC(N2Cc3ncc(-c4noc(C(F)(F)F)n4)cc3C2=O)C1 [Example 75, 6-(1-acetylazetidin-3-yl)-3-(5-(trifluoromethyl)-1,2,4-oxadiazol-3-yl)-6,7-dihydro-5H-pyrrolo[3,4-b]pyridin-5-one]
- inhibition at 1 µM (HDAC6 enzyme): 87%
- inhibition at 1 µM (HDAC9 enzyme): 79%
- inhibition at 1 µM (HDAC1 enzyme): 11%

Structure (SMILES): O=C(c1ccccc1)N1CC(N2Cc3ncc(-c4noc(C(F)(F)F)n4)cc3C2=O)C1 [Example 76, 6-(1-benzoylazetidin-3-yl)-3-(5-(trifluoromethyl)-1,2,4-oxadiazol-3-yl)-6,7-dihydro-5H-pyrrolo[3,4-b]pyridin-5-one]
- inhibition at 1 µM (HDAC6 enzyme): 85%
- inhibition at 1 µM (HDAC9 enzyme): 89%
- inhibition at 1 µM (HDAC1 enzyme): 31%

Structure (SMILES): O=C(Cc1ccc(F)cc1)N1CC(N2Cc3ncc(-c4noc(C(F)(F)F)n4)cc3C2=O)C1 [Example 77, 6-(1-((4-fluorophenyl)acetyl)azetidin-3-yl)-3-(5-(trifluoromethyl)-1,2,4-oxadiazol-3-yl)-6,7-dihydro-5H-pyrrolo[3,4-b]pyridin-5-one]
- inhibition at 1 µM (HDAC6 enzyme): 92%
- inhibition at 1 µM (HDAC9 enzyme): 90%
- inhibition at 1 µM (HDAC1 enzyme): 30%

Structure (SMILES): CC(C)(C)OC(=O)N[C@@H]1COCC[C@H]1N1Cc2ccc(-c3noc(C(F)(F)F)n3)cc2C1=O [Example 81, tert-butyl ((3S,4R)-4-(1-oxo-6-(5-(trifluoromethyl)-1,2,4-oxadiazol-3-yl)-1,3-dihydro-2H-isoindol-2-yl)tetrahydro-2H-pyran-3-yl)carbamate]
- inhibition at 1 µM (HDAC6 enzyme): 100%
- inhibition at 1 µM (HDAC9 enzyme): 62%
- inhibition at 1 µM (HDAC1 enzyme): 16%

Structure (SMILES): O=C(N[C@@H]1COCC[C@H]1N1Cc2ccc(-c3noc(C(F)(F)F)n3)cc2C1=O)C1CC1 [Example 82, N-((3S,4R)-4-(1-oxo-6-(5-(trifluoromethyl)-1,2,4-oxadiazol-3-yl)-1,3-dihydro-2H-isoindol-2-yl)tetrahydro-2H-pyran-3-yl)cyclopropanecarboxamide]
- inhibition at 1 µM (HDAC6 enzyme): 99%
- inhibition at 1 µM (HDAC9 enzyme): 61%
- inhibition at 1 µM (HDAC1 enzyme): 10%

Structure (SMILES): CC1(C(=O)N[C@@H]2COCC[C@H]2N2Cc3ccc(-c4noc(C(F)(F)F)n4)cc3C2=O)COC1 [Example 83, 3-methyl-N-((3S,4R)-4-(1-oxo-6-(5-(trifluoromethyl)-1,2,4-oxadiazol-3-yl)-1,3-dihydro-2H-isoindol-2-yl)tetrahydro-2H-pyran-3-yl)oxetane-3-carboxamide]
- inhibition at 1 µM (HDAC6 enzyme): 101%
- inhibition at 1 µM (HDAC9 enzyme): 52%
- inhibition at 1 µM (HDAC1 enzyme): 5%

Structure (SMILES): O=C(N[C@@H]1CCCC[C@H]1N1Cc2ncc(-c3noc(C(F)(F)F)n3)cc2C1=O)C1CC1 [Example 84, N-((1R,2R)-2-(5-oxo-3-(5-(trifluoromethyl)-1,2,4-oxadiazol-3-yl)-5,7-dihydro-6H-pyrrolo[3,4-b]pyridin-6-yl)cyclohexyl) cyclopropanecarboxamide]
- inhibition at 1 µM (HDAC6 enzyme): 102%
- inhibition at 1 µM (HDAC9 enzyme): 85%
- inhibition at 1 µM (HDAC1 enzyme): 18%

Structure (SMILES): CC(C)(C)OC(=O)N[C@H]1CCCC[C@H]1N1Cc2ccc(-c3noc(C(F)(F)F)n3)cc2C1=O [Example 85, tert-butyl ((1S,2R)-2-(1-oxo-6-(5-(trifluoromethyl)-1,2,4-oxadiazol-3-yl)-1,3-dihydro-2H-isoindol-2-yl)cyclohexyl)carbamate]
- inhibition at 1 µM (HDAC6 enzyme): 98%
- inhibition at 1 µM (HDAC9 enzyme): 67%
- inhibition at 1 µM (HDAC1 enzyme): 41%
